In ChEMBL document CHEMBL5465560, “Selectivity Literature for EUbOPEN Chemogenomic Library” (2024):

Tests used:
[1] = target: T1, Dual specificity protein kinase CLK4 (Homo sapiens, UniProt Q9HAZ1); assay: Selectivity interaction (KinomeScan (DiscoverX)) EUB0000655a CLK4; conditions: at 10 µM
[2] = target: Tyrosine-protein kinase Lck (Homo sapiens, UniProt P06239); assay: Selectivity interaction (KinomeScan (DiscoverX)) EUB0000655a LCK; conditions: at 10 µM
[3] = target: T2, Serine/threonine-protein kinase RIO1 (Homo sapiens) (UniProt Q9BRS2); assay: Selectivity interaction (KinomeScan (DiscoverX)) EUB0000655a RIOK1; conditions: at 10 µM
T2 sequence (whole entry): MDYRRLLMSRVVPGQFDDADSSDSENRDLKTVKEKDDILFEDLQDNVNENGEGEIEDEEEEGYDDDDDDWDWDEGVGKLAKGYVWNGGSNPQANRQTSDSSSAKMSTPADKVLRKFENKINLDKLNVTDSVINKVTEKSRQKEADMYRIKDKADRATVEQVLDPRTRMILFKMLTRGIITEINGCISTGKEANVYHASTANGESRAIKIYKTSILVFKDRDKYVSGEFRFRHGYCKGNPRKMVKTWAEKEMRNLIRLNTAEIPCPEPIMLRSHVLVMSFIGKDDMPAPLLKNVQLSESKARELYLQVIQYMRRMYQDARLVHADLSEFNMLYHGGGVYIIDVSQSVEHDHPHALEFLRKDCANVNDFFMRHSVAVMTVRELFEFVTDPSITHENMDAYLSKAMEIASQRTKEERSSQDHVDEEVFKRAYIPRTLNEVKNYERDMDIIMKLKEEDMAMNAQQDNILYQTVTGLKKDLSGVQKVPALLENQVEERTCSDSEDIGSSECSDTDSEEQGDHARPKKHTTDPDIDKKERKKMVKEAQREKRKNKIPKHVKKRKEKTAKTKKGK

[4] = target: Cyclin-dependent kinase 15 (Homo sapiens) (UniProt Q96Q40); assay: Selectivity interaction (KinomeScan (DiscoverX)) EUB0001079a CDK15; conditions: at 1 µM
[5] = target: Serine/threonine-protein kinase Nek6 (Homo sapiens) (UniProt Q9HC98); assay: Selectivity interaction (KinomeScan (DiscoverX)) EUB0001079a NEK6; conditions: at 1 µM
[6] = target: T1, Dual specificity protein kinase CLK4; assay: Selectivity interaction (KinomeScan (DiscoverX)) EUB0000618a CLK4; conditions: at 10 µM
[7] = target: Ribosomal protein S6 kinase alpha-4 (Homo sapiens) (UniProt O75676); assay: Selectivity interaction (SelectScreen profiling (Invitrogen)) EUB0000607a RPS6KA4; conditions: at 2 µM
[8] = target: Tyrosine-protein kinase Yes (Homo sapiens) (UniProt P07947); assay: Selectivity interaction (KinomeScan (DiscoverX)) EUB0000045b YES1
[9] = target: Calcium/calmodulin-dependent protein kinase type II subunit alpha (Homo sapiens, UniProt Q9UQM7); conditions: at 10 µM
[10] = target: T3, Cytoplasmic tyrosine-protein kinase BMX (Homo sapiens) (UniProt P51813); assay: Selectivity interaction (KinomeScan (DiscoverX)) EUB0001049a BMX; conditions: at 1 µM
T3 sequence (whole entry): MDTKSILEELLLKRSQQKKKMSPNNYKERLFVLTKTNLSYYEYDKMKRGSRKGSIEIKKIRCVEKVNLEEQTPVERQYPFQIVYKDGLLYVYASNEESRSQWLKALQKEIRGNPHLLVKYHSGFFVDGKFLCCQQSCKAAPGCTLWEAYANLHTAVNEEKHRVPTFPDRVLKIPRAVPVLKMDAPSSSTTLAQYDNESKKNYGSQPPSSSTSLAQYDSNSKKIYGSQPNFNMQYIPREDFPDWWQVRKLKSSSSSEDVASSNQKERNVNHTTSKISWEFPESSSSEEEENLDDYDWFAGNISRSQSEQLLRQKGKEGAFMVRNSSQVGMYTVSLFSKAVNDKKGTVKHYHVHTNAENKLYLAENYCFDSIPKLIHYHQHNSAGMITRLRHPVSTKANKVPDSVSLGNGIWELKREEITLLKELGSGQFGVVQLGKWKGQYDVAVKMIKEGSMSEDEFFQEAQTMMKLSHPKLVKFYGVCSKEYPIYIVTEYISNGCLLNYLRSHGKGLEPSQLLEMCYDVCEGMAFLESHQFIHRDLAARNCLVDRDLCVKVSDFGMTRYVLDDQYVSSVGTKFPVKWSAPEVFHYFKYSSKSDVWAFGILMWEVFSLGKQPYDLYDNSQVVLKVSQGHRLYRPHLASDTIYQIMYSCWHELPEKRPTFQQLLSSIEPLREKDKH

[11] = target: cAMP-dependent protein kinase catalytic subunit beta (Homo sapiens) (UniProt P22694); assay: Selectivity interaction (KinomeScan (DiscoverX)) EUB0001049a PRKACB; conditions: at 1 µM
[12] = target: T4, Serine/threonine-protein kinase TBK1 (Homo sapiens) (UniProt Q9UHD2); assay: Selectivity interaction (KinomeScan (DiscoverX)) EUB0001049a TBK1; conditions: at 1 µM
T4 sequence (whole entry): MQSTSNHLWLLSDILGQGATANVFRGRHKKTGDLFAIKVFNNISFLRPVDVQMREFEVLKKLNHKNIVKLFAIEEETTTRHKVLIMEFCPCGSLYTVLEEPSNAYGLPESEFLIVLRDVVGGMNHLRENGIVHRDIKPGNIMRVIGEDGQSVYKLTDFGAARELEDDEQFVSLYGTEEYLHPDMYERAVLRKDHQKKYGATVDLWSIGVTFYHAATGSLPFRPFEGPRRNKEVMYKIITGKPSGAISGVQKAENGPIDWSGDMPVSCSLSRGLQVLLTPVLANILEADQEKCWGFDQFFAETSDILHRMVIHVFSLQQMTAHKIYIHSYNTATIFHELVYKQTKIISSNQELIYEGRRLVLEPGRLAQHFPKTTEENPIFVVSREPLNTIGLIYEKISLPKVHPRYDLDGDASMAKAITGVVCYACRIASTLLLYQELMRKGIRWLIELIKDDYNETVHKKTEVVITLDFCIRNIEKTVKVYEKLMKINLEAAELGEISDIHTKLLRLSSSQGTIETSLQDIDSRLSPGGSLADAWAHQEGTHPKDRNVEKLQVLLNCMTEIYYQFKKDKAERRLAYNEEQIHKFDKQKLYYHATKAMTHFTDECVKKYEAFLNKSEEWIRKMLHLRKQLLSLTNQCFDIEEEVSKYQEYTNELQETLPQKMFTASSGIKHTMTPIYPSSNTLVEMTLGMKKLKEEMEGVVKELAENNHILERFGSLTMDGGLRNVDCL

[13] = target: Bromodomain-containing protein 3 (Homo sapiens) (UniProt Q15059); assay: Selectivity interaction (Human bromodomain panel (DSF assay)) EUB0000233b BRD3
Chain of Bromodomain-containing protein 3 (Homo sapiens) (Q15059 2-726 limits assumed): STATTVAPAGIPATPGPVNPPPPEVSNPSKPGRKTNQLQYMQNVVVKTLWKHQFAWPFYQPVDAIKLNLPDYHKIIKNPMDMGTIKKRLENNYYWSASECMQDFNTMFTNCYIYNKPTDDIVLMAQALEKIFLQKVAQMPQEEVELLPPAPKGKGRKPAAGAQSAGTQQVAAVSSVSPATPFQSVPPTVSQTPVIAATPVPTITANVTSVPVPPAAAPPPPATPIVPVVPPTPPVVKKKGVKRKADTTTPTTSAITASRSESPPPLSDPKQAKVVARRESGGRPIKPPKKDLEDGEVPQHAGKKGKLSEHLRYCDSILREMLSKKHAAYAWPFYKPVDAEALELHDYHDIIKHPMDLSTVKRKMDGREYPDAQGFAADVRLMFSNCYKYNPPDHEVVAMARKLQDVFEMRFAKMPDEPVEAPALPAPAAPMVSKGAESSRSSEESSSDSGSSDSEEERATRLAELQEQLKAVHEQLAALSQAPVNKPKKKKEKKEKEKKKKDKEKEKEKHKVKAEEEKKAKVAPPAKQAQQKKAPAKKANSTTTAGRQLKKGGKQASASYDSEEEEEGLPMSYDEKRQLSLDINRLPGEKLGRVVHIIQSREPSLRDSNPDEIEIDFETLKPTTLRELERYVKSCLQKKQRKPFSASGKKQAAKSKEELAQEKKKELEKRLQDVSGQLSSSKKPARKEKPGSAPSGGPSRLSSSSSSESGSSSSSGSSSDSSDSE

Chain of Tyrosine-protein kinase Yes (Homo sapiens) (P07947 2-543 limits assumed): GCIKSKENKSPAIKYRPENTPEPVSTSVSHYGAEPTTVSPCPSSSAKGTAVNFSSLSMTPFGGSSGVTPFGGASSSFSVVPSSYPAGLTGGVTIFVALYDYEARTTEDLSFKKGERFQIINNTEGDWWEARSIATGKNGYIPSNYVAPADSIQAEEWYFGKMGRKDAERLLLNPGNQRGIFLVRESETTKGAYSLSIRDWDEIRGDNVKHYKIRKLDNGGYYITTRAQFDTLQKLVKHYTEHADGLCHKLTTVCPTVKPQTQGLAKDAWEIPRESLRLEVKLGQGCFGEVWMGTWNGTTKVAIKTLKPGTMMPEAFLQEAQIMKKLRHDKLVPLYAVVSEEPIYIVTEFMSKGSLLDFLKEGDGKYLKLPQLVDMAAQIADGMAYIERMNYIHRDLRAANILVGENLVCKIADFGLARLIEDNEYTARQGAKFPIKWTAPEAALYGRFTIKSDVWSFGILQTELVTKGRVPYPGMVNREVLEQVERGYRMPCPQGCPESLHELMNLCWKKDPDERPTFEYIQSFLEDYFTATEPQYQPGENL
T1 sequence (Q9HAZ1 whole entry, looked up): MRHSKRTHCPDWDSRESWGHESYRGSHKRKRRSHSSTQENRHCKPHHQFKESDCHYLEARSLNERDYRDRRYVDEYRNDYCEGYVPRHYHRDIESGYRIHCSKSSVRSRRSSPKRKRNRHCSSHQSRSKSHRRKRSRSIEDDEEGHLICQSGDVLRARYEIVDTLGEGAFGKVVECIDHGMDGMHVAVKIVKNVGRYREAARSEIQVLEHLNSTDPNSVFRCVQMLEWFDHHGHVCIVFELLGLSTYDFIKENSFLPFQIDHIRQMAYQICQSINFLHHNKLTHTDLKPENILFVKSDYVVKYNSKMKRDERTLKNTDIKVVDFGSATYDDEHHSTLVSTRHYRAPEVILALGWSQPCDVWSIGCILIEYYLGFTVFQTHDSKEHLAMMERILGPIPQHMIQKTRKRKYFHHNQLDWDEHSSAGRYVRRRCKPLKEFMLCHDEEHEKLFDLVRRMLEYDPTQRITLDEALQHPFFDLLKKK
Chain of Tyrosine-protein kinase Lck (P06239 2-509 limits assumed): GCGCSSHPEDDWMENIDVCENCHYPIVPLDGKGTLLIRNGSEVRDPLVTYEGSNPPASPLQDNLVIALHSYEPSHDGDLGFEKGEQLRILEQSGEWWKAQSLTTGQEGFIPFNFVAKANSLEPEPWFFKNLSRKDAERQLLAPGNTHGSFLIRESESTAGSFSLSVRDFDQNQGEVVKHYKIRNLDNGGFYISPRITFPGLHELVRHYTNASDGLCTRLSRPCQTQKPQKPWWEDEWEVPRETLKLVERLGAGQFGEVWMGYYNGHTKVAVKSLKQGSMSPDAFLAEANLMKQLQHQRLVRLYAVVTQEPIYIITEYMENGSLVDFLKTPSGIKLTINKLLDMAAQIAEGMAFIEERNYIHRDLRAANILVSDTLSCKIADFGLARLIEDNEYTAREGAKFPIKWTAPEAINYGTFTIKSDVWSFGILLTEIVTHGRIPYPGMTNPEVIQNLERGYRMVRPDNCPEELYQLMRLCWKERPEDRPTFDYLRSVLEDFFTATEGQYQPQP
Chain of Calcium/calmodulin-dependent protein kinase type II subunit alpha (Q9UQM7 whole entry): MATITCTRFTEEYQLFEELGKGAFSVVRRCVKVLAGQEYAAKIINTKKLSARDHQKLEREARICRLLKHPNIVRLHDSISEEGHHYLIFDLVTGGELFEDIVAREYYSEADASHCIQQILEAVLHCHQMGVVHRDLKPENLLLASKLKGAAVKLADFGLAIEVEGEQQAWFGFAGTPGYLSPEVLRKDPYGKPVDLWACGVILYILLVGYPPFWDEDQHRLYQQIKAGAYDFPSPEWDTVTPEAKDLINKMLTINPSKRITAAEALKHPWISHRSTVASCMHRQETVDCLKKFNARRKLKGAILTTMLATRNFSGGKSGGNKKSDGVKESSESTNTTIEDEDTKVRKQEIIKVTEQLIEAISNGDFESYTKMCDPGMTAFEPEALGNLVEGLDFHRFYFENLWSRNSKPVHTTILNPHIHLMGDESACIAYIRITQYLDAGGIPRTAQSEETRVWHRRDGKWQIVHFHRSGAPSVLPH
Chain of Serine/threonine-protein kinase Nek6 (Homo sapiens) (Q9HC98 whole entry): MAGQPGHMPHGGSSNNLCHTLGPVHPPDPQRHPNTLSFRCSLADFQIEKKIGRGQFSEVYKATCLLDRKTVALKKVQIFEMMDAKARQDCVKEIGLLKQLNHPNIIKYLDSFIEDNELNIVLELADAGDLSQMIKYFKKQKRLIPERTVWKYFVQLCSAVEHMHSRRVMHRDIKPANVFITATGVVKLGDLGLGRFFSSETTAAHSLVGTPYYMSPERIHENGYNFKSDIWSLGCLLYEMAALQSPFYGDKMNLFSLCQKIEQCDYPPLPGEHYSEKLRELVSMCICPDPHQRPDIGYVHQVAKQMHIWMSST
Chain of Cyclin-dependent kinase 15 (Homo sapiens) (Q96Q40 whole entry): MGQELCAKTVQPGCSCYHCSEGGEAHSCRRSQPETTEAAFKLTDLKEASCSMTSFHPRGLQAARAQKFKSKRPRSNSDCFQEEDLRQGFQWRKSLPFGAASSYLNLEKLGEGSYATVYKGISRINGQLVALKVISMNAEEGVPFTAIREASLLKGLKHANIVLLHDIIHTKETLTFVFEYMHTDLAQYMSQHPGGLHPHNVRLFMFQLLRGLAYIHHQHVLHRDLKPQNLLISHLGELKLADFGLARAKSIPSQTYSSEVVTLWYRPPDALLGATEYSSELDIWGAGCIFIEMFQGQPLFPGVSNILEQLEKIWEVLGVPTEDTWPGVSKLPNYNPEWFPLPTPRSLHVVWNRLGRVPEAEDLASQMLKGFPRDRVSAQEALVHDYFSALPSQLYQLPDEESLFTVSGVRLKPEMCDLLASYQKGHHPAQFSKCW
Chain of Ribosomal protein S6 kinase alpha-4 (Homo sapiens) (O75676 whole entry, looked up): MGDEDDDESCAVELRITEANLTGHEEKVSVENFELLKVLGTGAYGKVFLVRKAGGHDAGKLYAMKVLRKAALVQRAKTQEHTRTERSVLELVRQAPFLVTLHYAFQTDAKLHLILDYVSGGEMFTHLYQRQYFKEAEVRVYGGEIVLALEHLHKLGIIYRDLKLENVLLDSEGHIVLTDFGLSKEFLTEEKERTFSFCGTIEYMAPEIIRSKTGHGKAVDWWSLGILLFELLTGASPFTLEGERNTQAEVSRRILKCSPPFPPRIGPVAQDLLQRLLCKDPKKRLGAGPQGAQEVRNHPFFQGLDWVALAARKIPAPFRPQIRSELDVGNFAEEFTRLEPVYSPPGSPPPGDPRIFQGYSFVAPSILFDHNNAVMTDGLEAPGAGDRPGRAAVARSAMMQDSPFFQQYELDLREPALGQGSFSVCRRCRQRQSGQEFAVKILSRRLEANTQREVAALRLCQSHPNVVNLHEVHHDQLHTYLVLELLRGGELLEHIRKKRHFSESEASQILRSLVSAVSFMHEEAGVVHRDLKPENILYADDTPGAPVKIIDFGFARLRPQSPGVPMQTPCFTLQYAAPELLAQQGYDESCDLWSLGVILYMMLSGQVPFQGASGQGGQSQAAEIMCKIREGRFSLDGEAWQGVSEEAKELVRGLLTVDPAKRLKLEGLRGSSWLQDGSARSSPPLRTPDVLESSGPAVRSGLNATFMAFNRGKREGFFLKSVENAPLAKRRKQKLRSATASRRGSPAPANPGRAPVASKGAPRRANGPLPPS

**Q.** Which results are given for CN(C)CCOc1ccc(-c2nc(-c3ccncc3)c(-c3ccc4c(c3)CC/C4=N\O)[nH]2)cc1?
**A.** % of control [1]: 68%; % of control [2]: 29%; % of control [3]: 97%

**Q.** With Nc1cnc(N2CCc3cc(S(=O)(=O)Nc4c(F)cc(Cl)cc4F)cc(N4CCCC4=O)c32)nc1 [TP-020n] as the compound, how does the % of control [4] read?
**A.** Its % of control is 80%.

**Q.** And the % of control [5]?
**A.** The % of control was 100%.

**Q.** With O[C@H]1CC[C@H](Nc2ncc3nc(Nc4c(F)cc(F)cc4F)n([C@H]4CCOC4)c3n2)CC1 as the compound, how does the % of control [6] read?
**A.** Its % of control is 100%.

**Q.** Which % of inhibition [7] does the source give for CNC(=O)Nc1ccc(-c2nc(N3CC4CCC(C3)O4)c3cnn(C4CCC5(CC4)OCCO5)c3n2)cc1 here?
**A.** The % of inhibition was 1%.

**Q.** Which results are given for C=CC(=O)Nc1cc(-n2c(=O)ccc3cnc4ccc(-c5ccc(NS(C)(=O)=O)cc5)cc4c32)ccc1C?
**A.** % of control ([8]; at 1 µM): 74%; % of control ([8]; at 10 µM): 100%

**Q.** For Cc1cc([C@@H](C)Nc2ccccc2C(=O)O)c2nc(N3CCOCC3)cc(=O)n2c1 [AZD-6482], which % of control [9] is on record?
**A.** Its % of control is 75%.

**Q.** COc1cc(Nc2nc(C)cc(-c3cnn4nc(OC)ccc34)n2)cc(C(F)(F)F)c1 was tested. Which % of control [10] did it give?
**A.** The % of control was 87%.

**Q.** What about the % of control [11] of the same compound?
**A.** The % of control was 100%.

**Q.** What about the % of control [12] of the same compound?
**A.** The % of control was 80%.

**Q.** With CN(C)CCCOc1ccc(-c2cc(NCCCn3cccn3)nc(S(C)(=O)=O)n2)cc1 as the compound, how does the dTM [13] read?
**A.** The dTM was less than 2 K.
